Assay results taken from patent publication US9073926B2, “Heterocyclic compounds containing a pyrrolopyridine or benzimidazole core” (Boehringer Ingelheim International GmbH, priority 2009, dated 2015).

These compounds were tested against Human RSK2 (Homo sapiens (Human), UniProt P51812) (assay: Human RSK2 Assay (Kinase Glo Plus, residual ATP)). Details: 0.75 nM His-RSK2, 0.75 μM ATP, 1.0 μM S6 Kinase/RSK Substrate Peptide 1.
Format: biochemical
Procedure: Experimental Method A: Human RSK2 Assay
Compounds are assessed for their ability to inhibit the phosphorylation of a substrate peptide by RSK2.
Human RSK2 protein, purchased from Invitrogen, is used to measure kinase activity utilizing Kinase Glo Plus (Promega) a homogeneous assay technology, which uses a luciferin-luciferase based ATP detection reagent to quantify residual ATP. The assay is performed using 0.75 nM His-RSK2, 0.75 μM ATP and 1.0 μM S6 Kinase/RSK Substrate Peptide 1 (Upstate, catalog #12-124), in assay buffer consisting of 25 mM HEPES, pH 7.5, 10 mM MgCl2, 5 mM MnCl2, 50 mM KCl, 0.2% BSA, 0.01% CHAPS, 100 μM Na3VO4, 0.5 mM DTT, and 1% DMSO. Solutions of test compounds at various concentrations are prepared by 1:3 fold serial dilution of a 1 mM solution of compound in DMSO. The DMSO solutions are further diluted with assay buffer to a final concentration of DMSO of 5%.
The assay is performed in a 384 well, white, non-binding plate (Corning, catalogue #3574). Solutions of test compounds (10 μL) are transferred to a dry assay plate, followed by addition of 20 μL kinase and 20 μL ATP+Substrate Peptide 1 described above. The kinase reaction mixture is incubated for 90 minutes at 28° C. followed by addition of 30 μL of ATP detection reagent for 15 minutes at room temperature. The relative light unit (RLU) signal is measured on a LJL Analyst (Molecular Devices) in luminescence mode using 384 aperture. The RLU signals were converted to percent of control (POC) values using the formula: POC=100*(BCTRL−Signal)/(BCTRL−PCTRL), where Signal is the test well RLU signal, BCTRL is the average of background (negative control), which consists of ATP+peptide and compound buffer, well signals on the plate, and PCTRL is the average of positive control, which consists of kinase, ATP+peptide, and compound buffer, well signals on the plate. For concentration-responsive compounds, POC as a function of test compound concentration are fitted to a 4-parameter logistic equation of the form: Y=A+(B−A)/[1+(x/C)^D], where A, B, C, and D are fitted parameters (parameter B is fixed at zero POC), and x and y are the independent and dependent variables, respectively. The IC50 (50% inhibitory concentration) is determined as the inflection point parameter, C. Experimental Method B: Human RSK2 Trans-Reporter Assay

Chain of Human RSK2 (P51812 whole entry): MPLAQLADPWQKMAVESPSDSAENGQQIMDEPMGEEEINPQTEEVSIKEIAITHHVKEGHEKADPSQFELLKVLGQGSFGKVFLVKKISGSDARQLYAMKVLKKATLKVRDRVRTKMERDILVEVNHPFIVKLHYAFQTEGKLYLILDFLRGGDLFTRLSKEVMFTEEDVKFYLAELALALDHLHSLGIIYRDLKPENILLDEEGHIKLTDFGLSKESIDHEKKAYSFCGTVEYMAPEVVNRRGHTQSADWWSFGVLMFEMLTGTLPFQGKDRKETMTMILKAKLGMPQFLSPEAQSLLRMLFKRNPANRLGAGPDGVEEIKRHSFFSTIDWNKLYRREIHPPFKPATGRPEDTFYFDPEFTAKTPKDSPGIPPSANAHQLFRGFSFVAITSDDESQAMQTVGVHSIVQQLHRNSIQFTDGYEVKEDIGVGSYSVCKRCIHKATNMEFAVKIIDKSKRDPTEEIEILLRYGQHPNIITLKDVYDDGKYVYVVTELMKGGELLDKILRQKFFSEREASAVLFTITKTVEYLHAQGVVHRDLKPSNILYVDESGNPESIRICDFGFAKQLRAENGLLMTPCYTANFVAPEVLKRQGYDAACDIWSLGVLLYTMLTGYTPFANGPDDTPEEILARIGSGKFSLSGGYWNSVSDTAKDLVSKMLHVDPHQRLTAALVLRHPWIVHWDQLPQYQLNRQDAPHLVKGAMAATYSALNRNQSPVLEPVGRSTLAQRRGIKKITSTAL

Row | Structure (SMILES) | IC50 [µM]
1 | CC(C)(C)n1cc(NC(=O)c2ccc3cc4n(c3n2)CCCNC4=O)cn1 [Example 44, N-(1-tert-butyl-1H-pyrazol-4-yl)-6-oxo-7,8,9,10-tetrahydro-6H-pyrido[3′,2′:4,5]pyrrolo[1,2-a][1,4]diazepine-2-carboxamide] | 0.0097
2 | CC1(C)CNC(=O)c2cc3ccc(C(=O)Nc4cnn(C(C)(C)C)c4)nc3n2C1 [Example 45, N-(1-tert-butyl-1H-pyrazol-4-yl)-9,9-dimethyl-6-oxo-7,8,9,10-tetrahydro-6H-pyrido[3′,2′:4,5]pyrrolo[1,2-a][1,4]diazepine-2-carboxamide] | 0.05
3 | CC1CCNC(=O)c2cc3ccc(C(=O)Nc4cnn(Cc5ccccc5)c4)nc3n21 (centres unmarked) [Example 46, N-(1-benzyl-1H-pyrazol-4-yl)-10-methyl-6-oxo-7,8,9,10-tetrahydro-6H-pyrido[3′,2′:4,5]pyrrolo[1,2-a][1,4]diazepine-2-carboxamide] | 0.00039
4 | O=C(Nc1cnn(Cc2ccccc2)c1)c1ccc2cc3n(c2n1)CCCNC3=O [Example 47, N-(1-benzyl-1H-pyrazol-4-yl)-6-oxo-7,8,9,10-tetrahydro-6H-pyrido[3′,2′:4,5]pyrrolo[1,2-a][1,4]diazepine-2-carboxamide] | 0.0038
5 | CC1(C)CNC(=O)c2cc3ccc(C(=O)Nc4cnn(Cc5ccccc5)c4)nc3n2C1 [Example 48, N-(1-benzyl-1H-pyrazol-4-yl)-9,9-dimethyl-6-oxo-7,8,9,10-tetrahydro-6H-pyrido[3′,2′:4,5]pyrrolo[1,2-a][1,4]diazepine-2-carboxamide] | 0.012
6 | O=C(Nc1nc2cc(Cl)cc(CN3CCOCC3)c2[nH]1)c1ccc2cc3n(c2n1)CCCNC3=O [Example 49, N-[5-chloro-7-(morpholin-4-ylmethyl)-1H-benzimidazol-2-yl]-6-oxo-7,8,9,10-tetrahydro-6H-pyrido[3′,2′:4,5]pyrrolo[1,2-a][1,4]diazepine-2-carboxamide] | 0.0067
7 | CC1(C)CNC(=O)c2cc3ccc(C(=O)Nc4nc5cc(Cl)ccc5[nH]4)nc3n2C1 [Example 50, N-(5-chloro-1H-benzimidazol-2-yl)-9,9-dimethyl-6-oxo-7,8,9,10-tetrahydro-6H-pyrido[3′,2′:4,5]pyrrolo[1,2-a][1,4]diazepine-2-carboxamide] | 0.055
8 | Cn1c(NC(=O)c2ccc3cc4n(c3n2)CCCNC4=O)nc2ccccc21 [Example 51, N-(1-methyl-1H-benzimidazol-2-yl)-6-oxo-7,8,9,10-tetrahydro-6H-pyrido[3′,2′:4,5]pyrrolo[1,2-a][1,4]diazepine-2-carboxamide] | 0.365
9 | Cn1c(NC(=O)c2ccc3cc4n(c3n2)CC(C)(C)CNC4=O)nc2ccccc21 [Example 52, 9,9-dimethyl-N-(1-methyl-1H-benzimidazol-2-yl)-6-oxo-7,8,9,10-tetrahydro-6H-pyrido[3′,2′:4,5]pyrrolo[1,2-a][1,4]diazepine-2-carboxamide] | 2.5
10 | CC(C)n1c(NC(=O)c2ccc3cc4n(c3n2)CCCNC4=O)nc2ccccc21 [Example 53, 6-oxo-N-[1-(propan-2-yl)-1H-benzimidazol-2-yl]-7,8,9,10-tetrahydro-6H-pyrido[3′,2′:4,5]pyrrolo[1,2-a][1,4]diazepine-2-carboxamide] | 0.63
11 | CC(C)n1c(NC(=O)c2ccc3cc4n(c3n2)CC(C)(C)CNC4=O)nc2ccccc21 [Example 54, 9,9-dimethyl-6-oxo-N-[1-(propan-2-yl)-1H-benzimidazol-2-yl]-7,8,9,10-tetrahydro-6H-pyrido[3′,2′:4,5]pyrrolo[1,2-a][1,4]diazepine-2-carboxamide] | 1.3
12 | CCn1c(NC(=O)c2ccc3cc4n(c3n2)CCCNC4=O)nc2ccccc21 [Example 55, N-(1-ethyl-1H-benzimidazol-2-yl)-6-oxo-7,8,9,10-tetrahydro-6H-pyrido[3′,2′:4,5]pyrrolo[1,2-a][1,4]diazepine-2-carboxamide] | 0.14
13 | CCn1c(NC(=O)c2ccc3cc4n(c3n2)CC(C)(C)CNC4=O)nc2ccccc21 [Example 56, N-(1-ethyl-1H-benzimidazol-2-yl)-9,9-dimethyl-6-oxo-7,8,9,10-tetrahydro-6H-pyrido[3′,2′:4,5]pyrrolo[1,2-a][1,4]diazepine-2-carboxamide] | 0.195
14 | CN(C)CCCn1c(NC(=O)c2ccc3cc4n(c3n2)CCCNC4=O)nc2ccccc21 [Example 57, N-{1-[3-(dimethylamino)propyl]-1H-benzimidazol-2-yl}-6-oxo-7,8,9,10-tetrahydro-6H-pyrido[3′,2′:4,5]pyrrolo[1,2-a][1,4]diazepine-2-carboxamide] | 0.245
15 | CN(C)CCCn1c(NC(=O)c2ccc3cc4n(c3n2)CC(C)(C)CNC4=O)nc2ccccc21 [Example 58, N-{1-[3-(dimethylamino)propyl]-1H-benzimidazol-2-yl}-9,9-dimethyl-6-oxo-7,8,9,10-tetrahydro-6H-pyrido[3′,2′:4,5]pyrrolo[1,2-a][1,4]diazepine-2-carboxamide] | 2.3
16 | C[C@@H]1CNC(=O)c2cc3ccc(C(=O)Nc4cnn(Cc5ccccc5)c4)nc3n21 [Example 59, (9R)-N-(1-benzyl-1H-pyrazol-4-yl)-9-methyl-6-oxo-6,7,8,9-tetrahydropyrido[3′,2′:4,5]pyrrolo[1,2-a]pyrazine-2-carboxamide] | 0.0002
17 | C[C@H]1CNC(=O)c2cc3ccc(C(=O)Nc4cnn(Cc5ccccc5)c4)nc3n21 [Example 60, (9S)-N-(1-benzyl-1H-pyrazol-4-yl)-9-methyl-6-oxo-6,7,8,9-tetrahydropyrido[3′,2′:4,5]pyrrolo[1,2-a]pyrazine-2-carboxamide] | 0.012
18 | CC(C)n1ncc2cc(NC(=O)c3ccc4cc5n(c4n3)[C@@H](C)CNC5=O)cnc21 [Example 63, (9S)-9-methyl-6-oxo-N-[1-(propan-2-yl)-1H-pyrazolo[3,4-b]pyridin-5-yl]-6,7,8,9-tetrahydropyrido[3′,2′:4,5]pyrrolo[1,2-a]pyrazine-2-carboxamide] | 0.084
19 | C[C@@H]1CNC(=O)c2cc3ccc(C(=O)Nc4cnc5ccccc5c4)nc3n21 [Example 64, (9R)-9-methyl-6-oxo-N-(quinolin-3-yl)-6,7,8,9-tetrahydropyrido[3′,2′:4,5]pyrrolo[1,2-a]pyrazine-2-carboxamide] | 0.003
20 | C[C@H]1CNC(=O)c2cc3ccc(C(=O)Nc4cnc5ccccc5c4)nc3n21 [Example 65, (9S)-9-methyl-6-oxo-N-(quinolin-3-yl)-6,7,8,9-tetrahydropyrido[3′,2′:4,5]pyrrolo[1,2-a]pyrazine-2-carboxamide] | 0.034
21 | CC(C)n1ncc2cc(NC(=O)c3ccc4cc5n(c4n3)[C@H](C)CNC5=O)cnc21 [Example 66, (9R)-9-methyl-6-oxo-N-[1-(propan-2-yl)-1H-pyrazolo[3,4-b]pyridin-5-yl]-6,7,8,9-tetrahydropyrido[3′,2′:4,5]pyrrolo[1,2-a]pyrazine-2-carboxamide] | 0.004
22 | O=C(Nc1nc2cc(Cl)ccc2[nH]1)c1ccc2cc3n(c2n1)CCCNC3=O [Example 67, N-(5-chloro-1H-benzimidazol-2-yl)-6-oxo-7,8,9,10-tetrahydro-6H-pyrido[3′,2′:4,5]pyrrolo[1,2-a][1,4]diazepine-2-carboxamide] | 0.0061
23 | CC1CCNC(=O)c2cc3ccc(C(=O)Nc4cnn(Cc5ccncc5)c4)nc3n21 (centres unmarked) [Example 68, 10-methyl-6-oxo-N-[1-(pyridin-4-ylmethyl)-1H-pyrazol-4-yl]-7,8,9,10-tetrahydro-6H-pyrido[3′,2′:4,5]pyrrolo[1,2-a][1,4]diazepine-2-carboxamide] | 0.00027
